These results are taken from ChEMBL document CHEMBL1201862, “PubChem BioAssay data set” (2004).

SMILES strings stand for the structures.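 Each compound was tested at five concentrations against cells in 96-well plates for 48 hours. GI50 marks 50% less growth.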 Activity calls are given as the source filed them. Rule as the data show it: active = GI50 up to about 1.1 µM and inactive = higher.

Among the test systems are MDA-MB-231; CAKI-1; NCI-H460; SK-MEL-28; CCRF-CEM; LOX IMVI; NCI-H226; COLO 205; MDA-MB-435; OVCAR-5; DU-145; 786-0; Malme-3M; A549; EKVX; SR; HT-29; MOLT-4; U-251; NCI-H23.
Common to all, as to experiment: NCI anticancer screen, dose series, 48 h

Consider `Cc1cc(O)c2c(c1)C[C@@H](O)C1=C2C(=O)c2c(O)ccc(OC3CC(O)C(OC4CC(OC5CCC(OC6CC(O)C(OC7CC(OC8CCC(O)C(C)O8)C(O)C(C)O7)C(C)O6)C(C)O5)C(O)C(C)O4)C(C)O3)c2C1=O` (stereo not given in full), for which the GI50 in the assay on MDA-MB-231 is 0.171 µM (active); in the assay on CAKI-1, 0.138 µM (active); with NCI-H460 it was 0.238 µM (active); in the assay on SK-MEL-28, 0.07 µM (active); in the assay on CCRF-CEM, 0.0531 µM (active); in the assay with LOX IMVI it was 0.0426 µM (active). For the same compound, the GI50 was 0.268 µM (active) in the assay on NCI-H226; 0.0488 µM (active) in the assay with COLO 205; 0.135 µM (active) with MDA-MB-435; 0.128 µM (active) in the assay with OVCAR-5; 0.345 µM (active) with DU-145; 0.0644 µM (active) with 786-0. In addition, the GI50 was 0.0516 µM (active) with Malme-3M; 0.302 µM (active) in the assay on A549; 0.112 µM (active) in the assay with EKVX; 0.0715 µM (active) in the assay on SR; 0.092 µM (active) with HT-29; 0.0352 µM (active) in the assay with MOLT-4. For the same compound, the results for the GI50 in the assay on U-251 and with NCI-H23 were 0.0387 µM (active) and 0.0661 µM (active), respectively.

As for `N=C1C=CC(=C(c2ccc(N)cc2)c2ccc(N)cc2)C=C1`, the GI50 was 4.66 µM (inactive) in the assay on MDA-MB-231; 19.1 µM (inactive) in the assay on CAKI-1; 3.61 µM (inactive) in the assay with NCI-H460; 8.13 µM (inactive) in the assay on SK-MEL-28; 3.15 µM (inactive) in the assay with CCRF-CEM; 3.91 µM (inactive) in the assay on LOX IMVI. Besides, the GI50 with NCI-H226 is 3.68 µM (inactive); in the assay on COLO 205, 1.64 µM (inactive); in the assay with MDA-MB-435 it was 4.18 µM (inactive); in the assay on OVCAR-5, 9.27 µM (inactive); in the assay with DU-145, 5.71 µM (inactive); in the assay with 786-0, 2.36 µM (inactive). Further, the GI50 with Malme-3M was 3.18 µM (inactive); in the assay with A549, 3.73 µM (inactive); with EKVX it was 5.58 µM (inactive); in the assay on SR it was 11.1 µM (inactive); in the assay on HT-29 it was 3.77 µM (inactive); in the assay with MOLT-4, 3.73 µM (inactive). Moreover, the GI50 in the assay with U-251 was 0.406 µM (active); in the assay on NCI-H23, 3.63 µM (inactive).

As to `O=C1CN2C(c3ccccc3)=NN(c3ccc([N+](=O)[O-])cc3)C2(c2ccccc2)c2cc(Cl)ccc2N1CC1CC1` (stereo not given), the GI50 in the assay with MDA-MB-231, in the assay on CAKI-1, in the assay with NCI-H460, in the assay on SK-MEL-28, in the assay with CCRF-CEM and in the assay on LOX IMVI was > 100 µM (inactive) in each case. Moreover, the GI50 with NCI-H226, in the assay with COLO 205, in the assay on MDA-MB-435, in the assay with OVCAR-5, in the assay with DU-145 and in the assay on 786-0 was > 100 µM (inactive) each time. Also, the GI50 was > 100 µM (inactive) with Malme-3M; > 100 µM (inactive) with A549; > 100 µM (inactive) in the assay on EKVX; > 100 µM (inactive) in the assay on SR; > 100 µM (inactive) in the assay on HT-29; 79.4 µM (inactive) in the assay on MOLT-4. The GI50 in the assay on U-251 and with NCI-H23 was > 100 µM (inactive) throughout.

For `CC(=O)O[C@H]1CC[C@@]2(C)C(=CC[C@@H]3[C@@H]2CC[C@]2(C)C(=O)/C(=C\c4ccccc4)C[C@@H]32)C1`, the GI50 in the assay on MDA-MB-231, in the assay with CAKI-1, with NCI-H460, in the assay on SK-MEL-28, with CCRF-CEM and with LOX IMVI was > 100 µM (inactive) in each case. The GI50 with NCI-H226, in the assay on COLO 205, with MDA-MB-435, in the assay on OVCAR-5, with DU-145 and in the assay on 786-0 was > 100 µM (inactive) in each case. In addition, the GI50 with Malme-3M was 89.9 µM (inactive); in the assay on A549, > 100 µM (inactive); in the assay with EKVX, > 100 µM (inactive); in the assay with SR, > 100 µM (inactive); with HT-29 it was > 100 µM (inactive); in the assay on MOLT-4 it was 37.8 µM (inactive). The GI50 in the assay on U-251 and in the assay on NCI-H23 was > 100 µM (inactive) throughout.

Take `COC(=O)C1C(O)CCC2CN3CCc4c([nH]c5cccc(OC)c45)C3CC21` (stereo not given): the GI50 in the assay on MDA-MB-231, with CAKI-1, in the assay with NCI-H460, in the assay on SK-MEL-28, in the assay on CCRF-CEM and with LOX IMVI was > 100 µM (inactive) throughout. Also, the GI50 with NCI-H226, in the assay on COLO 205, in the assay on MDA-MB-435, in the assay with OVCAR-5, with DU-145 and in the assay on 786-0 was > 100 µM (inactive) each time. Also, the GI50 in the assay on Malme-3M, in the assay with A549, with EKVX, in the assay on SR, with HT-29 and with MOLT-4 was > 100 µM (inactive) throughout. In addition, the GI50 in the assay on U-251 and with NCI-H23 was > 100 µM (inactive) throughout.

For the compound `CC(C)OC(=O)c1ccc(NCC2=CC(=O)C=CC2=O)cc1`, the GI50 in the assay with MDA-MB-231 was 10.2 µM (inactive); in the assay with CAKI-1, 3.43 µM (inactive); in the assay with NCI-H460, 36.3 µM (inactive); with SK-MEL-28 it was 18.3 µM (inactive); with CCRF-CEM, 2.21 µM (inactive); in the assay on LOX IMVI, 12.8 µM (inactive). Also, the GI50 is 30 µM (inactive) in the assay on NCI-H226; 3.8 µM (inactive) in the assay on COLO 205; 13.6 µM (inactive) in the assay with MDA-MB-435; 19.4 µM (inactive) with OVCAR-5; 16.6 µM (inactive) in the assay with DU-145; 13 µM (inactive) in the assay with 786-0. Further, the GI50 in the assay on Malme-3M was 8.97 µM (inactive); with A549, 44.3 µM (inactive); with EKVX, 17.3 µM (inactive); in the assay on SR, 2.39 µM (inactive); in the assay with HT-29, 16.4 µM (inactive); in the assay on MOLT-4 it was 2.39 µM (inactive). Moreover, the values for the GI50 with U-251 and in the assay with NCI-H23 were 16 µM (inactive) and 13.6 µM (inactive), respectively.

For `O=C(O)C(=Cc1ccc(-c2ccccc2)cc1)C(=O)O`, the GI50 with MDA-MB-231 is 14.9 µM (inactive); in the assay on CAKI-1 it was 14.5 µM (inactive); in the assay on NCI-H460, 14.9 µM (inactive); in the assay on SK-MEL-28, 15.8 µM (inactive); in the assay on CCRF-CEM, 4.06 µM (inactive); with LOX IMVI, 9.75 µM (inactive). Besides, the GI50 in the assay on NCI-H226 was 22 µM (inactive); with COLO 205, 11.2 µM (inactive); in the assay with MDA-MB-435, 9.16 µM (inactive); in the assay on OVCAR-5 it was > 39.5 µM (inactive); in the assay with DU-145 it was 3.66 µM (inactive); in the assay with 786-0, 14.8 µM (inactive). Besides, the GI50 in the assay with Malme-3M was 14.7 µM (inactive); with A549, 18 µM (inactive); in the assay with EKVX it was > 100 µM (inactive); in the assay with SR, 1.49 µM (inactive); in the assay on HT-29, > 25.8 µM (inactive); in the assay on MOLT-4, 15.8 µM (inactive). Also, the GI50 was 12.5 µM (inactive) in the assay with U-251 and 6.87 µM (inactive) with NCI-H23.

For the compound `CCOC(=O)C1Cc2c(cc3c4c(cccc24)N(C(C)=O)C3)N(C)C1` (stereo not given), the GI50 with MDA-MB-231 was 1.4 µM (inactive); with CAKI-1, 7.71 µM (inactive); in the assay with NCI-H460, > 100 µM (inactive); in the assay on SK-MEL-28, > 100 µM (inactive); in the assay with CCRF-CEM, 0.867 µM (active); in the assay on LOX IMVI, 6.35 µM (inactive). Also, the GI50 was 2.9 µM (inactive) with NCI-H226; > 100 µM (inactive) in the assay on COLO 205; 2.56 µM (inactive) with MDA-MB-435; 17.7 µM (inactive) with OVCAR-5; > 100 µM (inactive) with DU-145; 4.03 µM (inactive) in the assay with 786-0. Moreover, the GI50 was 5.18 µM (inactive) with Malme-3M; > 100 µM (inactive) with A549; 9.59 µM (inactive) in the assay with EKVX; 41.6 µM (inactive) with SR; > 100 µM (inactive) in the assay with HT-29; 4.02 µM (inactive) in the assay on MOLT-4. Moreover, the GI50 in the assay on U-251 was 4.93 µM (inactive); in the assay with NCI-H23, > 100 µM (inactive).

In the case of `CCOc1ccc2nc(NC(=O)/C(CC(=O)CC(C3=C(O)c4ccccc4CC3=O)c3ccccc3)=N\O)sc2c1` (stereo not given), the GI50 in the assay on MDA-MB-231, with CAKI-1, in the assay with NCI-H460, with SK-MEL-28, with CCRF-CEM and in the assay with LOX IMVI was > 100 µM (inactive) throughout. For the same compound, the GI50 with NCI-H226, in the assay on COLO 205, in the assay on MDA-MB-435, in the assay on OVCAR-5, in the assay on DU-145 and in the assay on 786-0 was > 100 µM (inactive) each time. The GI50 in the assay on Malme-3M, in the assay on A549, in the assay with EKVX, in the assay on SR, in the assay on HT-29 and in the assay with MOLT-4 was > 100 µM (inactive) each time. Further, the GI50 in the assay on U-251 and in the assay on NCI-H23 was > 100 µM (inactive) in each case.

Consider `Cc1sc2nc3n(c(=O)c2c1C)N=CN(c1ccc(Cl)cc1)C3`, for which the GI50 in the assay with MDA-MB-231, in the assay with CAKI-1, in the assay with NCI-H460, in the assay with SK-MEL-28, in the assay with CCRF-CEM and with LOX IMVI was > 100 µM (inactive) in each case. Besides, the GI50 in the assay with NCI-H226, with COLO 205, in the assay on MDA-MB-435, with OVCAR-5, in the assay with DU-145 and in the assay on 786-0 was > 100 µM (inactive) each time. For the same compound, the GI50 in the assay with Malme-3M was 33.3 µM (inactive); in the assay with A549, > 100 µM (inactive); with EKVX, > 100 µM (inactive); in the assay on SR, 63.4 µM (inactive); in the assay on HT-29, > 100 µM (inactive); with MOLT-4, > 100 µM (inactive). Further, the GI50 with U-251 and with NCI-H23 was > 100 µM (inactive) each time.
